Bounds are passed on as bounds.

What all share (assay type): in vivo
In assay [1] the test system is Orchid Thrips (Dichromothrips corbetti). Briefly: Action on orchid thrips, floral-immersion technique. The note with it: adult thrips, 72 hours after treatment, read-out: mortality in comparison with untreated controls. The procedure: Dichromothrips corbetti adults used for bioassay were obtained from a colony maintained continuously under laboratory conditions. For testing purposes, the test compound is diluted in a 1:1 mixture of acetone:water (vol:vol), plus Kinetic® HV at a rate of 0.01% v/v.
Thrips potency of each compound was evaluated by using a floral-immersion technique. All petals of individual, intact orchid flowers were dipped into treatment solution and allowed to dry in Petri dishes. Treated petals were placed into individual re-sealable plastic along with about 20 adult thrips. All test arenas were held under continuous light and a temperature of about 28° C. for duration of the assay. After 3 days, the numbers of live thrips were counted on each petal. The percent mortality was recorded 72 hours after treatment.

Assay [2] relates to boll weevil (Anthonomus grandis). Briefly: Action on boll weevil, eggs on insect diet in 96-well microtiter plates. The note with it: 120 h, egg and larval mortality after 5 days, read-out: mortality in comparison with untreated controls. As for the experimental part: For evaluating control of boll weevil (Anthonomus grandis) the test unit consisted of 96-well-microtiter plates containing an insect diet and 5-10 A. grandis eggs.
The compounds were formulated using a solution containing 75% (v/v) water and 25% (v/v) DMSO. Different concentrations of formulated compounds were sprayed onto the insect diet at 5 μl, using a custom built micro atomizer, at two replications.
After application, microtiter plates were incubated at about 25+1° C. and about 75+5% relative humidity for 5 days. Egg and larval mortality was then visually assessed.

Assay [3] has as its system Diamond Back Moth (Plutella xylostella). Briefly: Action on diamond back moth, cabbage leaf dip. The note with it: foliar, 3rd instar larvae, 72 hours after treatment, read-out: mortality in comparison with untreated controls. As for the experimental part:
The active compound is dissolved at the desired concentration in a mixture of 1:1 (v/v) distilled water:acetone. Surfactant (Kinetic® HV) is added at a rate of 0.01% (v/v). The test solution is prepared at the day of use.
Leaves of cabbage were dipped in test solution and air-dried. Treated leaves were placed in petri dishes lined with moist filter paper and inoculated with ten 3rd instar larvae. Mortality was recorded 72 hours after treatment. Feeding damages were also recorded using a scale of 0-100%.

Assay [4] deals with yellow fever mosquito (Aedes aegypti). Description: whole plant or invertebrate. The following applies: 48 h, larval mortality visually assessed after 2 days, read-out: mortality in comparison with untreated controls. As for the experimental part: For evaluating control of yellow fever mosquito (Aedes aegypti) the test unit consisted of 96-well-microtiter plates containing 200 μl of tap water per well and 5-15 freshly hatched A. aegypti larvae.
The active compounds or mixtures were formulated using a solution containing 75% (v/v) water and 25% (v/v) DMSO. Different concentrations of formulated compounds or mixtures were sprayed onto the insect diet at 2.5 μl, using a custom built micro atomizer, at two replications. For experimental mixtures in these tests identical volumes of both mixing partners at the desired concentrations respectively, were mixed together.
After application, microtiter plates were incubated at 28±1° C., 80±5% RH for 2 days. Larval mortality was then visually assessed.

In assay [5] the test system is tobacco budworm (Heliothis virescens). Briefly: Action on tobacco budworm, eggs on insect diet in 96-well microtiter plates. The following applies: 120 h, egg and larval mortality after 5 days, read-out: mortality in comparison with untreated controls. As for the experimental part:
For evaluating control of tobacco budworm (Heliothis virescens) the test unit consisted of 96-well-microtiter plates containing an insect diet and 15-25 H. virescens eggs.
The compounds were formulated using a solution containing 75% v/v water and 25% v/v DMSO. Different concentrations of formulated compounds were sprayed onto the insect diet at 10 μl, using a custom built micro atomizer, at two replications.
After application, microtiter plates were incubated at about 28+1° C. and about 80+5% relative humidity for 5 days. Egg and larval mortality was then visually assessed.

In assay [6] the test system is Southern Armyworm (Spodoptera eridania), 2nd Instar Larvae. Description: Action on southern armyworm, sprayed lima bean plants. The note with it: 96 h, 2nd instar larvae on lima bean, 4 days after treatment, read-out: mortality in comparison with untreated controls. As for the experimental part:
The active compounds were formulated by a Tecan liquid handler in 100% cyclohexanone as a 10,000 ppm solution supplied in tubes. The 10,000 ppm solution was serially diluted in 100% cyclohexanone to make interim solutions. These served as stock solutions for which final dilutions were made by the Tecan in 50% acetone:50% water (v/v) into 10 or 20 ml glass vials. A nonionic surfactant (Kinetic®) was included in the solution at a volume of 0.01% (v/v). The vials were then inserted into an automated electrostatic sprayer equipped with an atomizing nozzle for application to plants/insects.
Lima bean plants (variety Sieva) were grown 2 plants to a pot and selected for treatment at the 1st true leaf stage. Test solutions were sprayed onto the foliage by an automated electrostatic plant sprayer equipped with an atomizing spray nozzle. The plants were dried in the sprayer fume hood and then removed from the sprayer. Each pot was placed into perforated plastic bags with a zip closure. About 10 to 11 armyworm larvae were placed into the bag and the bags zipped closed. Test plants were maintained in a growth room at about 25° C. and about 20-40% relative humidity for 4 days, avoiding direct exposure to fluorescent light (24 hour photoperiod) to prevent trapping of heat inside the bags. Mortality and reduced feeding were assessed 4 days after treatment, compared to untreated control plants.

On to `C/N=C(/c1nn(C)c2cc(/C=N/NC(=S)Nc3ccccc3C(C)C)ccc12)N(C)c1ccc(OC(F)(F)F)cc1` [Example C-3, 1-[(E)-[3-[(Z)—N,N′-dimethyl-N-[4-(trifluoromethoxy)phenyl]carbamimidoyl]-1-methyl-indazol-6-yl]methyleneamino]-3-(2-isopropylphenyl)thiourea], for which the mortality at 500 ppm in assay [1] and in assay [3] was at least 75% throughout. In addition, the mortality at 800 ppm in assay [2] was at least 75%; in assay [4] it was at least 50%; in assay [5] it was at least 75%.
For the compound `CON=C(Nc1ccc(OC(F)(F)F)cc1)c1nn(C)c2cc(/C=N/N=C3\SC(=O)CN3c3ccccc3C(C)C)ccc12` [Example C-6, 6-[(E)-[(Z)-[3-(2-isopropylphenyl)-5-oxo-thiazolidin-2-ylidene]hydrazono]methyl]-N′-methoxy-1-methyl-N-[4-(trifluoromethoxy)phenyl]indazole-3-carboxamidine], the mortality at 500 ppm in assay [1] and in assay [3] was at least 75% in each case. Also, the mortality at 800 ppm was at least 75% in assay [2], at least 50% in assay [4] and at least 75% in assay [5]. Besides, in assay [6], the mortality at 300 ppm is at least 75%.
On to `CC(C)c1ccccc1NC(=S)N/N=C/c1ccc2c(/C(N)=N/c3ccc(OC(F)(F)F)cc3)nsc2c1` [Example C-20, 1-(2-isopropylphenyl)-3-[(E)-[3-[(Z)—N′-[4-(trifluoromethoxy)phenyl]carbamimidoyl]-1,2-benzothiazol-6-yl]methyleneamino]thiourea], for which the mortality at 500 ppm in assay [1] and in assay [3] was at least 75% each time. Further, the mortality at 800 ppm in assay [2] was at least 75%; in assay [4], at least 50%; in assay [5] it was at least 75%.
For `CC(C)c1ccccc1N1C(=O)CS/C1=N\N=C\c1ccc2c(C(N)=Nc3ccc(OC(F)(F)F)cc3)nsc2c1` [Example C-21, 6-[(E)-[(Z)-[3-(2-isopropylphenyl)-4-oxo-thiazolidin-2-ylidene]hydrazono]methyl]-N′[4-(trifluoromethoxy)phenyl]-1,2-benzothiazole-3-carboxamidine], the mortality at 500 ppm in assay [1] and in assay [3] was at least 75% throughout. For the same compound, the results for the mortality at 800 ppm in assay [2], in assay [4] and in assay [5] were at least 75%, at least 50% and at least 75%, respectively. Moreover, in assay [6], the mortality at 300 ppm is at least 75%.
As for `CC(C)c1ccccc1NC(=S)N/N=C/c1ccc2c(/C=N/c3ccc(OC(F)(F)F)cc3)nn(C)c2c1` [Example C-24, 1-(2-isopropylphenyl)-3-[(E)-[1-methyl-3-[(E)-[4-(trifluoromethoxy)phenyl]iminomethyl]indazol-6-yl]methyleneamino]thiourea], in assay [3], the mortality at 500 ppm was at least 75%. Further, the values for the mortality at 800 ppm in assay [4] and in assay [5] were at least 50% and at least 75%, respectively.
Take `CC(C)c1ccccc1N1C(=O)CS/C1=N\N=C\c1ccc2c(/C=N/c3ccc(OC(F)(F)F)cc3)nn(C)c2c1` [Example C-25, (2Z)-3-(2-isopropylphenyl)-2-[(E)-[1-methyl-3-[(E)-[4-(trifluoromethoxy)phenyl]iminomethyl]indazol-6-yl]methylenehydrazono]thiazolidin-4-one]: the mortality at 500 ppm in assay [3] is at least 75%. Besides, the mortality at 800 ppm in assay [5] is at least 75%.
For the compound `CC(C)c1ccccc1NC(=S)N/N=C/c1ccc2c(C(=N)Nc3ccc(OC(F)(F)F)cc3)nn(C)c2n1` [Example C-26, 1-(2-isopropylphenyl)-3-[(E)-[1-methyl-3-[N-[4-(trifluoromethoxy)phenyl]carbamimidoyl]pyrazolo[3,4-b]pyridin-6-yl]methyleneamino]thiourea], the mortality at 500 ppm in assay [1] and in assay [3] was at least 75% in each case. Besides, the mortality at 800 ppm in assay [2] was at least 75%; in assay [4], at least 50%; in assay [5], at least 75%. Further, the mortality at 300 ppm in assay [6] is at least 75%.
Regarding `CC(C)c1ccccc1N1C(=O)CS/C1=N\N=C\c1ccc2c(C(=N)Nc3ccc(OC(F)(F)F)cc3)nn(C)c2n1` [Example C-27, 6-[(E)-[(Z)-[3-(2-isopropylphenyl)-4-oxo-thiazolidin-2-ylidene]hydrazono]methyl]-1-methyl-N-[4-(trifluoromethoxy)phenyl]pyrazolo[3,4-b]pyridine-3-carboxamidine], the mortality at 500 ppm in assay [1] and in assay [3] was at least 75% each time. Further, the mortality at 800 ppm in assay [2] is at least 75%; in assay [4], at least 50%; in assay [5], at least 75%. The mortality at 300 ppm in assay [6] is at least 75%.
For `CC(C)c1ccccc1N1CCS/C1=N\N=C\c1ccc2c(C(=N)Nc3ccc(OC(F)(F)F)cc3)nn(C)c2c1` [Example C-36, 6-[(E)-[(Z)-[3-(2-isopropylphenyl)thiazolidin-2-ylidene]hydrazono]methyl]-1-methyl-N-[4-(trifluoromethoxy)phenyl]indazole-3-carboxamidine], the mortality at 500 ppm in assay [1] and in assay [3] was at least 75% throughout. Moreover, the mortality at 800 ppm in assay [2] was at least 75%; in assay [4], at least 50%; in assay [5], at least 75%.
Consider `CC(C)c1ccccc1N1CCCS/C1=N\N=C\c1ccc2c(C(=N)Nc3ccc(OC(F)(F)F)cc3)nn(C)c2c1` [Example C-37, 6-[(E)-[(Z)-[3-(2-isopropylphenyl)-1,3-thiazinan-2-ylidene]hydrazono]methyl]-1-methyl-N-[4-(trifluoromethoxy)phenyl]indazole-3-carboxamidine], for which the mortality at 500 ppm in assay [1] and in assay [3] was at least 75% in each case. For the same compound, the figures for the mortality at 800 ppm in assay [2], in assay [4] and in assay [5] were at least 75%, at least 50% and at least 75%, respectively.
